Data taken from US9896435B2, “N-pyrrolidinyl,N′-pyrazolyl-urea, thiourea, guanidine and cyanoguanidine compounds as TrkA kinase inhibitors” (Array BioPharma Inc., priority 2012, dated 2018).

Target: His-tagged recombinant human TrkA (Homo sapiens (Human), UniProt P04629)
Assay: TrkA LanthaScreen Eu Kinase Binding Assay
Conditions: averaged IC50; LanthaScreen binding assay of Example A; read-out: TrkA Enzyme IC50
Description: TrkA binding activity was determined in a TrkA LanthaScreen™ Eu Kinase Binding Assay. 5 nM His-tagged recombinant human TrkA (6HIS tagged cytoplasmic domain from Invitrogen, Catalog No. PV3144) was incubated with 4 nM Alexa-Fluor® Tracer 236 (Invitrogen Cat. No. PV5592), 2 nM biotinylated anti-His (Invitrogen Cat. No. PV6090), and 2 nM europium-labeled Streptavidin (Invitrogen Cat. No. PV5899), in buffer (25 mM MOPS, pH 7.5, 5 mM MgCl2, 0.005% Triton X-100). Three fold serial dilutions of compounds of the invention in DMSO were added to a final percentage of 2% DMSO. After 60-minute incubation at 22° C., the reaction was measured using the EnVision mutlimode plate reader (PerkinElmer) via TR-FRET dual wavelength detection at […]. The percent of control was calculated using a ratiometric emission factor. The IC50 values were determined by fitting a four parameter model to the percent of control data.
Table A provides averaged IC50 values for compounds of the invention when tested in the assay of Example A, where A represents an averaged IC50 value<100 nM.

His-tagged recombinant human TrkA, sequence (P04629 440-796): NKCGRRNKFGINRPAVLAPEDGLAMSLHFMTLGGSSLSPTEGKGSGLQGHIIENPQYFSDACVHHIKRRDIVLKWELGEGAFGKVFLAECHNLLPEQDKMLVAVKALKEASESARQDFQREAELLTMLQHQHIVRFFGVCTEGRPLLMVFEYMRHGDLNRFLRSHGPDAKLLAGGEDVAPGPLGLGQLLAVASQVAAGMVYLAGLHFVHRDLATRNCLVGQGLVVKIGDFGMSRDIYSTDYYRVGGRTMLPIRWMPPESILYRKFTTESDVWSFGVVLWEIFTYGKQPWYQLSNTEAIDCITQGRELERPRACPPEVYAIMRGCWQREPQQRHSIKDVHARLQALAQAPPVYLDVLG

IC50 [nM]	SMILES
< 100	COCCN1C[C@@H](NC(=O)Nc2c(C)c(-c3ccc(=O)n(C)c3)nn2-c2ccccc2)[C@H](c2ccc(F)c(Cl)c2)C1 (relative stereo) [Example 22, 1-(trans-4-(3-chloro-4-fluorophenyl)-1-(2-methoxyethyl)pyrrolidin-3-yl)-3-(4-methyl-3-(1-methyl-6-oxo-1,6-dihydropyridin-3-yl)-1-phenyl-1H-pyrazol-5-yl)urea]
< 100	COCCN1C[C@@H](NC(=O)Nc2c(C)c(-c3ccc(=O)n(C)c3)nn2-c2ccccc2)[C@H](c2ccc(Cl)c(F)c2)C1 (relative stereo) [Example 23, 1-(trans-4-(4-chloro-3-fluorophenyl)-1-(2-methoxyethyl)pyrrolidin-3-yl)-3-(4-methyl-3-(1-methyl-6-oxo-1,6-dihydropyridin-3-yl)-1-phenyl-1H-pyrazol-5-yl)urea]
< 100	COCCN1C[C@@H](NC(=O)Nc2c(C)c(-c3ccc(=O)n(C)c3)nn2-c2ccccc2)[C@H](c2cc(F)cc(Cl)c2)C1 (relative stereo) [Example 24, 1-(trans-4-(3-chloro-5-fluorophenyl)-1-(2-methoxyethyl)pyrrolidin-3-yl)-3-(4-methyl-3-(1-methyl-6-oxo-1,6-dihydropyridin-3-yl)-1-phenyl-1H-pyrazol-5-yl)urea]
< 100	COCCN1C[C@@H](NC(=O)Nc2c(C)c(-c3ccc(=O)n(C)c3)nn2-c2ccccc2)[C@H](c2cccc(Cl)c2)C1 (relative stereo) [Example 25, 1-(trans-4-(3-chlorophenyl)-1-(2-methoxyethyl)pyrrolidin-3-yl)-3-(4-methyl-3-(1-methyl-6-oxo-1,6-dihydropyridin-3-yl)-1-phenyl-1H-pyrazol-5-yl)urea]
< 100	COCCN1C[C@@H](NC(=O)Nc2c(C)c(-c3ccc(C)nc3)nn2-c2ccccc2)[C@H](c2ccc(F)c(F)c2)C1 [Example 1, 1-((3S,4R)-4-(3,4-difluorophenyl)-1-(2-methoxyethyl)pyrrolidin-3-yl)-3-(4-methyl-3-(6-methylpyridin-3-yl)-1-phenyl-1H-pyrazol-5-yl)urea]
< 100	COCCN1C[C@@H](NC(=O)Nc2c(C)c(-c3cccnc3F)nn2-c2ccccc2)[C@H](c2ccc(F)c(F)c2)C1 [Example 3, 1-((3S,4R)-4-(3,4-difluorophenyl)-1-(2-methoxyethyl)pyrrolidin-3-yl)-3-(3-(2-fluoropyridin-3-yl)-4-methyl-1-phenyl-1H-pyrazol-5-yl)urea]
< 100	COCCN1C[C@@H](NC(=O)Nc2c(C)c(-c3cccnc3C)nn2-c2ccccc2)[C@H](c2ccc(F)c(F)c2)C1 [Example 4, 1-((3S,4R)-4-(3,4-difluorophenyl)-1-(2-methoxyethyl)pyrrolidin-3-yl)-3-(4-methyl-3-(2-methylpyridin-3-yl)-1-phenyl-1H-pyrazol-5-yl)urea]
< 100	COCCN1C[C@@H](NC(=O)Nc2c(C)c(-c3cncc(C)c3)nn2-c2ccccc2)[C@H](c2ccc(F)c(F)c2)C1 [Example 5, 1-((3S,4R)-4-(3,4-difluorophenyl)-1-(2-methoxyethyl)pyrrolidin-3-yl)-3-(4-methyl-3-(5-methylpyridin-3-yl)-1-phenyl-1H-pyrazol-5-yl)urea]
< 100	COCCN1C[C@@H](NC(=O)Nc2c(C)c(-c3cncc(C#N)c3)nn2-c2ccccc2)[C@H](c2ccc(F)c(F)c2)C1 [Example 7, 1-(3-(5-cyanopyridin-3-yl)-4-methyl-1-phenyl-1H-pyrazol-5-yl)-3-((3S,4R)-4-(3,4-difluorophenyl)-1-(2-methoxyethyl)pyrrolidin-3-yl)urea]
< 100	COCCN1C[C@@H](NC(=O)Nc2c(C)c(-c3ccc(OC)nc3)nn2-c2ccccc2)[C@H](c2ccc(F)c(F)c2)C1 [Example 8, 1-((3S,4R)-4-(3,4-difluorophenyl)-1-(2-methoxyethyl)pyrrolidin-3-yl)-3-(3-(6-methoxypyridin-3-yl)-4-methyl-1-phenyl-1H-pyrazol-5-yl)urea]
< 100	CCOc1ncc(-c2nn(-c3ccccc3)c(NC(=O)N[C@@H]3CN(CCOC)C[C@H]3c3ccc(F)c(F)c3)c2C)cn1 [Example 9, 1-((3S,4R)-4-(3,4-difluorophenyl)-1-(2-methoxyethyl)pyrrolidin-3-yl)-3-(3-(2-ethoxypyrimidin-5-yl)-4-methyl-1-phenyl-1H-pyrazol-5-yl)urea]
< 100	COCCN1C[C@@H](NC(=O)Nc2c(C)c(-c3cnc(C4CC4)nc3)nn2-c2ccccc2)[C@H](c2ccc(F)c(F)c2)C1 [Example 10, 1-(3-(2-cyclopropylpyrimidin-5-yl)-4-methyl-1-phenyl-1H-pyrazol-5-yl)-3-((3S,4R)-4-(3,4-difluorophenyl)-1-(2-methoxyethyl)pyrrolidin-3-yl)urea]
< 100	COCCN1C[C@@H](NC(=O)Nc2c(C)c(-c3cnc(C4CC4)nc3)nn2-c2ccccc2)[C@H](c2ccc(F)cc2)C1 [Example 11, 1-(3-(2-cyclopropylprimidin-5-yl)-4-methyl-1-phenyl-1H-pyrazol-5-yl)-3-((3S,4R)-4-(4-fluorophenyl)-1-(2-methoxyethyl)pyrrolidin-3-yl)urea]
< 100	COCCN1C[C@@H](NC(=O)Nc2c(C)c(-c3cnc(OC)nc3)nn2-c2ccccc2)[C@H](c2cc(F)cc(F)c2)C1 [Example 12, 1-((3S,4R)-4-(3,5-difluorophenyl)-1-(2-methoxyethyl)pyrrolidin-3-yl)-3-(3-(2-methoxypyrimidin-5-yl)-4-methyl-1-phenyl-1H-pyrazol-5-yl)urea]
< 100	COCCN1C[C@@H](NC(=O)Nc2c(C)c(-c3cnc(C)nc3)nn2-c2ccccc2)[C@H](c2ccc(F)cc2)C1 [Example 13, 1-((3S,4R)-4-(4-fluorophenyl)-1-(2-methoxyethyl)pyrrolidin-3-yl)-3-(4-methyl-3-(2-methylpyrimidin-5-yl)-1-phenyl-1H-pyrazol-5-yl)urea]
< 100	CCOc1ncc(-c2nn(-c3ccccc3)c(NC(=O)N[C@@H]3CN(CCOC)C[C@H]3c3ccc(F)cc3)c2C)cn1 [Example 15, 1-(3-(2-ethoxypyrimidin-5-yl)-4-methyl-1-phenyl-1H-pyrazol-5-yl)-3-((3S,4R)-4-(4-fluorophenyl)-1-(2-methoxyethyl)pyrrolidin-3-yl)urea]
< 100	CCOc1ncc(-c2nn(-c3ccccc3)c(NC(=O)N[C@@H]3CN(CCOC)C[C@H]3c3cc(F)cc(F)c3)c2C)cn1 [Example 16, 1-((3S,4R)-4-(3,5-difluorophenyl)-1-(2-methoxyethyl)pyrrolidin-3-yl)-3-(3-(2-ethoxypyrimidin-5-yl)-4-methyl-1-phenyl-1H-pyrazol-5-yl)urea]
< 100	COCCN1C[C@@H](NC(=O)Nc2c(C)c(-c3ccc(=O)n(C)n3)nn2-c2ccccc2)[C@H](c2ccc(F)c(F)c2)C1 [Example 17, 1-((3S,4R)-4-(3,4-difluorophenyl)-1-(2-methoxyethyl)pyrrolidin-3-yl)-3-(4-methyl-3-(1-methyl-6-oxo-1,6-dihydropyridazin-3-yl)-1-phenyl-1H-pyrazol-5-yl)urea]
< 100	COCCN1C[C@@H](NC(=O)Nc2c(C)c(-c3ccc(=O)n(C)n3)nn2-c2ccccc2)[C@H](c2ccc(F)cc2)C1 [Example 18, 1-((3S,4R)-4-(4-fluorophenyl)-1-(2-methoxyethyl)pyrrolidin-3-yl)-3-(4-methyl-3-(1-methyl-6-oxo-1,6-dihydropyridazin-3-yl)-1-phenyl-1H-pyrazol-5-yl)urea]
< 100	COCCN1C[C@@H](NC(=O)Nc2c(C)c(-c3ccc(=O)n(C)n3)nn2-c2ccccc2)[C@H](c2cc(F)cc(F)c2)C1 [Example 19, 1-((3S,4R)-4-(3,5-difluorophenyl)-1-(2-methoxyethyl)pyrrolidin-3-yl)-3-(4-methyl-3-(1-methyl-6-oxo-1,6-dihydropyridazin-3-yl)-1-phenyl-1H-pyrazol-5-yl)urea]
< 100	COCCN1C[C@@H](NC(=O)Nc2c(C)c(-c3cnc(NC4CC4)nc3)nn2-c2ccccc2)[C@H](c2ccc(F)c(F)c2)C1 [Example 20, 1-(3-(2-(cyclopropylamino)pyrimidin-5-yl)-4-methyl-1-phenyl-1H-pyrazol-5-yl)-3-((3S,4R)-4-(3,4-difluorophenyl)-1-(2-methoxyethyl)pyrrolidin-3-yl)urea]
< 100	COCCN1C[C@@H](NC(=O)Nc2c(C)c(-c3cnc(NC4CC4)nc3)nn2-c2ccccc2)[C@H](c2ccc(F)cc2)C1 [Example 21, 1-(3-(2-(cyclopropylamino)pyrimidin-5-yl)-4-methyl-1-phenyl-1H-pyrazol-5-yl)-3-((3S,4R)-4-(4-fluorophenyl)-1-(2-methoxyethyl)pyrrolidin-3-yl)urea di-trifluoroacetate]
< 100	COCCN1C[C@@H](NC(=O)Nc2c(C)c(-c3ccc(=O)n(C)c3)nn2-c2ccccc2)[C@H](c2cc(F)c(F)c(F)c2)C1 [Example 26, 1-((3S,4R)-1-(2-methoxyethyl)-4-(3,4,5-trifluorophenyl)pyrrolidin-3-yl)-3-(4-methyl-3-(1-methyl-6-oxo-1,6-dihydropyridin-3-yl)-1-phenyl-1H-pyrazol-5-yl)urea]
< 100	COCCN1C[C@@H](NC(=O)Nc2c(C)c(-c3ccc(=O)n(C)c3)nn2-c2ccccc2)[C@H](c2cccc(F)c2)C1 [Example 27, 1-((3S,4R)-4-(3-fluorophenyl)-1-(2-methoxyethyl)pyrrolidin-3-yl)-3-(4-methyl-3-(1-methyl-6-oxo-1,6-dihydropyridin-3-yl)-1-phenyl-1H-pyrazol-5-yl)urea]
